Assay results reported in US8901141B2, “Tricyclic compounds having corticotropin-releasing factor antagonistic activity and pharmaceutical compositions containing them” (Takeda Pharmaceutical Company, Limited, priority 2008, dated 2014).

The compounds below were run against T1, human CRF1 receptor (Homo sapiens, UniProt P34998) (assay: Measurement of CRF binding inhibitory rate (125I-CRF receptor binding, CHO cellular membrane fraction)). Conditions: 1.5 h, at the presence of 1 μM of a test compound; human CRF1 receptor expressing CHO cellular membrane fraction, 50 pM 125I-CRF; read-out: Binding inhibitory rates (% inhibition).
T1 construct: expressed in transfected cells; host or cells: CHO cells (membrane fraction)
T1 sequence (P34998 24-415): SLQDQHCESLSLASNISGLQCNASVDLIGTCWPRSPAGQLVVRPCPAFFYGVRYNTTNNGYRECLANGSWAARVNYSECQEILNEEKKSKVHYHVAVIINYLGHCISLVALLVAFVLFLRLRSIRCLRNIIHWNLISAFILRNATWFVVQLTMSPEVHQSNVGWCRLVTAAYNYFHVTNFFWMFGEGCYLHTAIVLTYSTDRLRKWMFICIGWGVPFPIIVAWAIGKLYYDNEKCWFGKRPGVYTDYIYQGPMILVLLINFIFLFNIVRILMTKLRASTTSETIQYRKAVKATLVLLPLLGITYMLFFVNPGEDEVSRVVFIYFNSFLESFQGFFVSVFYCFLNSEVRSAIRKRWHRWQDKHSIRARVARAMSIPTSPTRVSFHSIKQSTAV
Protocol: A receptor binding experiment was carried out using a human CRF1 receptor expressing CHO cellular membrane fraction and ovine CRF, [^125I]-tyr^0(^125I-CRF). 1000 nM of a test compound was incubated with 1 μg of human CRF receptor expressing CHO cellular membrane fraction and 50 pM of ^125I-CRF in a binding assay buffer (50 mM Tris-HCl, 5 mM EDTA, 10 mM MgCl2, 0.05% CHAPS, 0.1% BSA, 0.5 mM PMSF, 0.1 μg/mL pepstatin, 20 μg/mL leupeptin, pH 7.5). In addition, for measuring nonspecific binding (NSB), 0.1 μM unlabelled human Urocortin was incubated with 5 μg of human CRF receptor expressing CHO cellular membrane fraction and 50 pM of ^125I-CRF in a binding assay buffer. After a binding reaction was carried out at room temperature for 1.5 hr, the membrane was entrapped on a glass filter (UniFilter plate GF-C/Perkin Elmer) by suction filtration using a cell harvester (Perkin Elmer), and washed with ice-cooled 50 mM Tris-HCl (pH 7.5). After drying the glass filter, a liquid scintillation cocktail (Microscinti 0, Perkin Elmer) was added, and the radioactivity of ^125I-CRF remaining on a glass filter was measured using Topcount (Perkin Elmer).
(TB-SB)/(TB-NSB)×100 (SB: radioactivity when a compound is added, TB: maximum binding radioactivity, NSB: nonspecific binding radioactivity) were calculated to obtain binding inhibitory rates under the range of the presence from 0.05 nM to 10 μM of each compound. The IC50 values were calculated by using GraphPad Prism software.

Question: How did the inhibition at 1 µM turn out when CCC(OC(C)=O)c1ccc(Cl)c2nc3n(c12)CCCN3c1ccc(Cl)cc1Cl (racemic) [Example 238, 1-[9-Chloro-1-(2,4-dichlorophenyl)-1,2,3,4-tetrahydropyrimido[1,2-a]benzimidazol-6-yl]propyl acetate] was run?
Answer: 98%

Question: How did the inhibition at 1 µM turn out when CCC(OC(C)=O)c1ccc(Cl)c2nc3n(c12)CCCN3c1ccc(OC)nc1C (racemic) [Example 265, 1-[9-Chloro-1-(6-methoxy-2-methylpyridin-3-yl)-1,2,3,4-tetrahydropyrimido[1,2-a]benzimidazol-6-yl]propyl acetate] was run?
Answer: 89%

Question: For CCC(OC(C)=O)c1ccc(Cl)c2nc3n(c12)CCCN3c1ccc(Cl)cc1Cl (single isomer, unassigned; (-)) [Example 239, (−)-1-[9-Chloro-1-(2,4-dichlorophenyl)-1,2,3,4-tetrahydropyrimido[1,2-a]benzimidazol-6-yl]propyl acetate], which inhibition at 1 µM is on record?
Answer: 90%

Question: How did the inhibition at 1 µM turn out when CCC(OC(C)=O)c1ccc(Cl)c2nc3n(c12)CCCN3c1ccc(OC)nc1C (single isomer, unassigned; (-)) [Example 266, (−)-1-[9-Chloro-1-(6-methoxy-2-methylpyridin-3-yl)-1,2,3,4-tetrahydropyrimido[1,2-a]benzimidazol-6-yl]propyl acetate] was run?
Answer: 82%

Question: How did the inhibition at 1 µM turn out when CCC(CC)c1ccc(Cl)c2nc3n(c12)CCCCN3c1cnc(N(C)C)cc1C [Example 25, 5-[10-Chloro-7-(1-ethylpropyl)-2,3,4,5-tetrahydro-1H-[1,3]diazepino[1,2-a]benzimidazol-1-yl]-N,N,4-trimethylpyridin-2-amine] was run?
Answer: 91%

Question: CCC(O)c1ccc(Cl)c2nc3n(c12)CCCN3c1ccc(Cl)cc1Cl (stereo not drawn) [Example 112, 1-[9-Chloro-1-(2,4-dichlorophenyl)-1,2,3,4-tetrahydropyrimido[1,2-a]benzimidazol-6-yl]propan-1-ol] was tested. Which inhibition at 1 µM did it give?
Answer: 95%

Question: How did the inhibition at 1 µM turn out when COc1ccc(N2CCCn3c2nc2c(Cl)ccc(C(O)(C4CC4)C4CC4)c23)c(C)n1 [Example 276, [9-Chloro-1-(6-methoxy-2-methylpyridin-3-yl)-1,2,3,4-tetrahydropyrimido[1,2-a]benzimidazol-6-yl](dicyclopropyl)methanol] was run?
Answer: 94%

Question: CCN(CC)c1ccc(F)c2nc3n(c12)CCCN3c1ccc(Cl)cc1Cl [Example 365, 1-(2,4-Dichlorophenyl)-N,N-diethyl-9-fluoro-1,2,3,4-tetrahydropyrimido[1,2-a]benzimidazol-6-amine] was tested. Which inhibition at 1 µM did it give?
Answer: 95%

Question: For COc1ccc(C(O)(C2CC2)C2CC2)c2c1nc1n2CCCN1c1ccc(Cl)cc1Cl [Example 369, Dicyclopropyl[1-(2,4-dichlorophenyl)-9-methoxy-1,2,3,4-tetrahydropyrimido[1,2-a]benzimidazol-6-yl]methanol], which inhibition at 1 µM is on record?
Answer: 96%

Question: Cc1cc(Cl)cc(Cl)c1N1CCn2c1nc1c(Cl)ccc(C(O)(C3CC3)C3CC3)c12 [Example 426, [8-Chloro-1-(2,4-dichloro-6-methylphenyl)-2,3-dihydro-1H-imidazo[1,2-a]benzimidazol-5-yl](dicyclopropyl)methanol] was tested. Which inhibition at 1 µM did it give?
Answer: 98%

Question: For CCC(CCO)c1ccc(Cl)c2nc3n(c12)CCCN3c1ccc(Cl)cc1Cl (stereo not drawn) [Example 450, 3-[9-Chloro-1-(2,4-dichlorophenyl)-1,2,3,4-tetrahydropyrimido[1,2-a]benzimidazol-6-yl]pentan-1-ol], which inhibition at 1 µM is on record?
Answer: 98%

Same assay, conditions: at the presence of 1 μM of a test compound; human CRF1 receptor expressing CHO cellular membrane fraction, 50 pM 125I-CRF

Question: For CCC(OC(C)=O)c1ccc(Cl)c2nc3n(c12)CCCN3c1ccc(Cl)cc1Cl (single isomer, unassigned; (+)) [Example 240, (+)-1-[9-Chloro-1-(2,4-dichlorophenyl)-1,2,3,4-tetrahydropyrimido[1,2-a]benzimidazol-6-yl]propyl acetate], which “Binding inhibitory rates (% inhibition)” value is on record?
Answer: 97%

Question: How did the “Binding inhibitory rates (% inhibition)” value turn out when CCC(OC(C)=O)c1ccc(Cl)c2nc3n(c12)CCCN3c1ccc(OC)nc1C (single isomer, unassigned; (+)) [Example 267, (+)-1-[9-Chloro-1-(6-methoxy-2-methylpyridin-3-yl)-1,2,3,4-tetrahydropyrimido[1,2-a]benzimidazol-6-yl]propyl acetate] was run?
Answer: 96%

Question: How did the “Binding inhibitory rates (% inhibition)” value turn out when CCC(O)c1ccc(Cl)c2nc3n(c12)CCCN3c1ccc(Cl)cc1Cl (single isomer, unassigned; (+)) [Example 439, (+)-1-[9-Chloro-1-(2,4-dichlorophenyl)-1,2,3,4-tetrahydropyrimido[1,2-a]benzimidazol-6-yl]propan-1-ol] was run?
Answer: 84%

Same assay, conditions: human CRF1 receptor expressing CHO cellular membrane fraction, 50 pM 125I-CRF, 0.05 nM to 10 μM of compound; read-out: IC50 values (CRF binding inhibition)

Question: Which IC50 does the source give for COc1ccc(N2CCCn3c2nc2c(Cl)ccc(C(OCC(F)(F)F)C4CC4)c23)c(Cl)c1 (stereo not drawn) [Example 468, 9-Chloro-1-(2-chloro-4-methoxyphenyl)-6-[cyclopropyl(2,2,2-trifluoroethoxy)methyl]-1,2,3,4-tetrahydropyrimido[1,2-a]benzimidazole] here?
Answer: < 1000 nM
